Experimental data: patent US10077261B2, “Imidazolin-5-one derivative useful as FASN inhibitors for the treatment of cancer” (Janssen Pharmaceutica NV, priority 2012, dated 2018)

Assays:
[1] = molecular target: T1, hFASN enzyme (full length) (Homo sapiens, UniProt P49327); experiment: Fatty Acid Synthase (FASN) inhibition scintillation proximity assay; assay type: biochemical; details: for inhibition at 10 µM: read-out: Human FASN % inhibition @ 10 μM, 10 μM test compound; for IC50: read-out: Human FASN pIC50 (converted)
T1 construct: 10 μL hFASN enzyme (full length, 300 ng, purified in house); made in house
T1 sequence (P49327 whole entry): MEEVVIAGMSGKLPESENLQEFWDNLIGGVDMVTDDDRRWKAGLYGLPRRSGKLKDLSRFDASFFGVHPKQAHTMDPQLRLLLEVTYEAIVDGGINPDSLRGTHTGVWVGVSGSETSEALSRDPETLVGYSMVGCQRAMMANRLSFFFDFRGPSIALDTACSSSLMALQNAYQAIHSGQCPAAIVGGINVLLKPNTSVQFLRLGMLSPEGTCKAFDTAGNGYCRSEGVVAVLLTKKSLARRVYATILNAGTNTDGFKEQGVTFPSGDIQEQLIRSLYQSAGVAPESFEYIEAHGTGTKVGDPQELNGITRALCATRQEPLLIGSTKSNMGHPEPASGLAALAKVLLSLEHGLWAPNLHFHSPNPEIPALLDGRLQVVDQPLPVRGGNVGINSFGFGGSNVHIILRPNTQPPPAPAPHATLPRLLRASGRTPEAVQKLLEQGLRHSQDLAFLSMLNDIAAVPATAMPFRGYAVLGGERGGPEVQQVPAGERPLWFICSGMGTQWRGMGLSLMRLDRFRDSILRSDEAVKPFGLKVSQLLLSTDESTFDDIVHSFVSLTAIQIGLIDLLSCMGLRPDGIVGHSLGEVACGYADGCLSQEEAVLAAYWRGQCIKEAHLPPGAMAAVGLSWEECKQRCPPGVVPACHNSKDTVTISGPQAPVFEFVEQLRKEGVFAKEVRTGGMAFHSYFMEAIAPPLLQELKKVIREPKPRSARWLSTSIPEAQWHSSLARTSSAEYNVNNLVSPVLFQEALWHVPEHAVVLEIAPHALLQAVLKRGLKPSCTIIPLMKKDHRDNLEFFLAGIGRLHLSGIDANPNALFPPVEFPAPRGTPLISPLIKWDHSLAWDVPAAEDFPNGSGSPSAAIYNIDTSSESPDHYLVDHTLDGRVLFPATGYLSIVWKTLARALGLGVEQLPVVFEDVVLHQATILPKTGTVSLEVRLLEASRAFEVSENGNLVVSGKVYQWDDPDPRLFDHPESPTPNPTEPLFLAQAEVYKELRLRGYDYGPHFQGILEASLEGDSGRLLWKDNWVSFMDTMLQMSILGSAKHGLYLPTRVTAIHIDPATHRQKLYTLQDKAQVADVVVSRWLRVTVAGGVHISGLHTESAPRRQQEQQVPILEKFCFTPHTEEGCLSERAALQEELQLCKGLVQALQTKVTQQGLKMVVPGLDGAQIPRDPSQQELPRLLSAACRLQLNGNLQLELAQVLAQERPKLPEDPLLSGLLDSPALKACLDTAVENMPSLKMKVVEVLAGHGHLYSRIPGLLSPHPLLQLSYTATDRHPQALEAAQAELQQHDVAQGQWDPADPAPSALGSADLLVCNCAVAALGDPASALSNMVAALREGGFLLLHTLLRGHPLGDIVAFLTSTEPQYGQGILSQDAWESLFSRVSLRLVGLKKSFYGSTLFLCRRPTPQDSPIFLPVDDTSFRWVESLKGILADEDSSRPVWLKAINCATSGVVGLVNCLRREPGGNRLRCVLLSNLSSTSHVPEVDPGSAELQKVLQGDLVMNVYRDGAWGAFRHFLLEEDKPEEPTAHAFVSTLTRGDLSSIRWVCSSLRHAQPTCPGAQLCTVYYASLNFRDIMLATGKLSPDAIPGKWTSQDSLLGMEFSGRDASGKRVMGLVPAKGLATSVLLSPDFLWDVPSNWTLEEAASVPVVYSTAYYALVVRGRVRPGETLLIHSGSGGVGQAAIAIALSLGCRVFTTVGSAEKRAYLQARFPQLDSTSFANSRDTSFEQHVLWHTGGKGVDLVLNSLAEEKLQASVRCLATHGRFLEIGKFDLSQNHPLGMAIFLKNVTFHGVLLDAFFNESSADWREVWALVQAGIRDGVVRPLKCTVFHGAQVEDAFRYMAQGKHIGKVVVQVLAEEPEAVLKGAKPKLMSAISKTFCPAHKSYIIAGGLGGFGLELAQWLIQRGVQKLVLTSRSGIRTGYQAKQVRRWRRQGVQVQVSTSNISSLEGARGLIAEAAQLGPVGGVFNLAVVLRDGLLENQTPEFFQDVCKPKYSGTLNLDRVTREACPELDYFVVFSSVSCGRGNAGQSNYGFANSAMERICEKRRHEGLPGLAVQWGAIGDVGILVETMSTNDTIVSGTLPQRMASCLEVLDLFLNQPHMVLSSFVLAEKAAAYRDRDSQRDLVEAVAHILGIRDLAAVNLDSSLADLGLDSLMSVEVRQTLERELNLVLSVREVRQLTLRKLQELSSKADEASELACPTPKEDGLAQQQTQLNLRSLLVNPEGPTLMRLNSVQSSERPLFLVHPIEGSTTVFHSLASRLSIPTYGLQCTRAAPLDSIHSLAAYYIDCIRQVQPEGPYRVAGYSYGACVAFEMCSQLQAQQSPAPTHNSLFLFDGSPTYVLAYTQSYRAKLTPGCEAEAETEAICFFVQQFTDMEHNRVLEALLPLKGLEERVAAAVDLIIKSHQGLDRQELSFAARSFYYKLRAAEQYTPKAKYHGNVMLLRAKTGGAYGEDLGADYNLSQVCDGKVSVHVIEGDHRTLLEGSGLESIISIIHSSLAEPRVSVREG
Summary of the method: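 Full-length in-house purified enzyme (300 ng) was tested in 100 mM KH2PO4 pH 7.5, 1 mM DTT with ³H-acetyl-CoA and malonyl-CoA as substrates; compounds ranged 0.01–30 μM. Reactions were stopped with streptavidin imaging beads, read by LEADseeker at 610 nm, and fitted to a 4-parameter logistic curve.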

A2780 ovarian cells [2] = experiment: A2780 ovarian cell proliferation assay in lipid reduced medium, with palmitate (MTT); assay type: cell-based; details: Homo sapiens, A2780, 96 h; read-out: pIC50 A2780 Ovarian Cell, With Palmitate (converted)
Summary of the method: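 Seeded cells were switched next day to lipid-reduced serum, exposed to compound and 25 μM palmitate complexed with fatty-acid-free BSA, and incubated 96 h. Proliferation was then determined by MTT absorbance at 544 nm, with a best-fit curve of signal against concentration.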

A2780 ovarian cells [3] = experiment: A2780 ovarian cell proliferation assay in lipid reduced medium, without palmitate (MTT); assay type: cell-based; details: Homo sapiens, A2780, 96 h; read-out: pIC50 A2780 Ovarian Cell, Without Palmitate (converted)
[4] = tested on: LNCaP-Vancouver prostate cells; experiment: In vitro LNCaP Vancouver prostate cell proliferation assay in lipid reduced medium; assay type: cell-based; details: read-out: pIC50 LNCaP_Vancouver prostate cell (converted)
[5] = tested on: PC-3M-Luc-C6 prostate cells; experiment: In vitro PC-3M-Luc-C6 prostate cell proliferation assay in lipid reduced medium; assay type: cell-based; details: 96 h, read-out: pIC50 PC-3M-Luc-C6 prostate cell (converted)
[6] = molecular target: Fatty Acid Synthase Keto-reductase Domain (FASN KR) (Homo sapiens, UniProt P49327); experiment: Fatty Acid Synthase keto-reductase domain (FASN KR) inhibition, NADPH oxidation at 340 nm
Sequence of Fatty Acid Synthase Keto-reductase Domain (FASN KR) (P49327 whole entry, the tested form may be a part): as the sequence (P49327 whole entry) above
Protocol: After 20 minutes incubation at room temperature the plate was measured again (T2).
The decrease in absorbance was calculated as (Absorbance before incubation T1)−(Absorbance following incubation T2).
A plot of Controlmin versus test compound concentration was fitted to a 4-parameter logistic curve using a non-linear least squares regression method.

Row | SMILES | inhibition at 10 µM [1] [%] | IC50 [1] [nM] | IC50 (A2780 ovarian cells [2]) [nM] | IC50 (A2780 ovarian cells [3]) [nM] | IC50 [4] [nM] | IC50 [5] [nM] | IC50 [6] [nM]
1 | Cn1nc(C#N)c2ccc(-c3ccc(C4=NC5(CC5)C(=O)N4C[C@@H]4CCN(C(=O)C5CC5)C4)cc3)cc21 [compound 493, 6-[4-(6-{[(3R)-1-(Cyclopropylcarbonyl)pyrrolidin-3-yl]methyl}-7-oxo-4,6-diazaspiro[2.4]hept-4-en-5-yl)phenyl]-1-methyl-1H-indazole-3-carbonitrile] | 98 | 166 | > 10000 | ~209 | 1260 | 158 | 427
2 | Cc1cc(-c2ccc3sc(C)c(C)c3c2)ccc1C1=NC2(CC2)C(=O)N1CC1CN(C(=O)C2CC2)C1 [compound 290, 6-((1-(cyclopropanecarbonyl)azetidin-3-yl)methyl)-5-(4-(2,3-dimethylbenzo[b]thiophen-5-yl)-2-methylphenyl)-4,6-diazaspiro[2.4]hept-4-en-7-one] | 110 | 79.4 | > 10000 | ~1950 | ~2140 | ~1170 | 331
3 | Cn1nc(C(N)=O)c2ccc(-c3ccc(C4=NC5(CC5)C(=O)N4C[C@@H]4CCN(C(=O)C5CC5)C4)cc3)cc21 [compound 221, (R)-6-(4-(6-((1-(cyclopropanecarbonyl)pyrrolidin-3-yl)methyl)-7-oxo-4,6-diazaspiro[2.4]hept-4-en-5-yl)phenyl)-1-methyl-1H-indazole-3-carboxamide] | 92 | 97.7 | 6920 | 46.8 | ~380 | 132 | 234
4 | O=C1Cc2ccc(-c3ccc(C4=NC5(CC5)C(=O)N4C[C@@H]4CCN(C(=O)C5CC5)C4)cc3)cc2N1 [compound 461, 6-[4-(6-{[(3R)-1-(Cyclopropylcvarbonyl)pyrrolidin-3-yl]methyl}-7-oxo-4,6-diazaspiro[2.4]hept-4-en-5-yl)phenyl]-1,3-dihydro-2H-indol-2-one] | 95 | 141 | > 10000 | ~427 | ~2510 | ~603 | 1170
5 | CS(=O)(=O)N1CCC2(CC1)N=C(c1ccc(-c3ccc4[nH]ccc4c3)cc1)N(CC1CN(C(=O)C3CC3)C1)C2=O [compound 762, 3-{[1-(Cyclopropylcarbonyl)azetidin-3-yl]methyl}-2-[4-(1H-indol-5-yl)phenyl]-8-(methylsulfonyl)-1,3,8-triazaspiro[4.5]dec-1-en-4-one] | 95 | 316 | > 10000 | ~977 | 3890 | 813 | 759
6 | Cc1cc(-c2ccc3c(c2)ncn3C)ccc1C1=NC2(CC2)C(=O)N1CC1CN(C(=O)C2(C)CC2)C1 [compound 627, 6-({1-[(1-Methylcyclopropyl)carbonyl]azetidin-3-yl}methyl)-5-[2-methyl-4-(1-methyl-1H-benzimidazol-5-yl)phenyl]-4,6-diazaspiro[2.4]hept-4-en-7-one] | 105 | 107 | > 10000 | 12 | ~129 | 47.9 | 126
7 | O=C(C1CC1)N1CC[C@@H](CN2C(=O)C3(CC3)N=C2c2ccc(-c3ccc4[nH]ccc4c3)s2)C1 [compound 423, 6-{[(3R)-1-(Cyclopropylcarbonyl)pyrrolidin-3-yl]methyl}-5-[5-(1H-indol-5-yl)thiophen-2-yl]-4,6-diazaspiro[2.4]hept-4-en-7-one] | 90 | 316 | > 10000 | 1290 | 2570 | 1350 | 550
8 | Cn1cc(-c2ccc(-c3ccc(C4=NC5(CC5)C(=O)N4C[C@@H]4CCN(C(=O)C5CC5)C4)c(F)c3)cc2)cn1 [compound 323, (R)-6-((1-(cyclopropanecarbonyl)pyrrolidin-3-yl)methyl)-5-(3-fluoro-4′-(1-methyl-1H-pyrazol-4-yl)-[1,1′-biphenyl]-4-yl)-4,6-diazaspiro[2.4]hept-4-en-7-one] | 101 | 25.1 | > 10000 | ~2.88 | 33.1 | 8.32 | 44.7
9 | Cc1cc(-c2ccc3cc[nH]c3c2)ccc1C1=NC2(CC2)C(=O)N1C[C@@H]1CCN(C(=O)C2CC2)C1 [compound 305, (R)-5-(4-(1H-indol-6-yl)-2-methylphenyl)-6-((1-(cyclopropanecarbonyl)pyrrolidin-3-yl)methyl)-4,6-diazaspiro[2.4]hept-4-en-7-one] | 103 | 25.1 | > 10000 | 40.7 | 263 | 28.8 | 30.9
10 | Cc1cc(-c2ccc3cc(C#N)ccc3c2)ccc1C1=NC2(CC2)C(=O)N1CC1CN(C(=O)C2(F)CC2)C1 [compound 273, 6-(4-(6-((1-(1-fluorocyclopropanecarbonyl)azetidin-3-yl)methyl)-7-oxo-4,6-diazaspiro[2.4]hept-4-en-5-yl)-3-methylphenyl)-2-naphthonitrile] | 102 | 42.7 | 7940 | ~20.9 | 355 | 67.6 | 145
11 | O=C(C1CC1)N1CC[C@@H](CN2C(=O)C3(CC3)N=C2c2ccc(-c3cccc4[nH]ncc34)s2)C1 [compound 427, 6-{[(3R)-1-(Cyclopropylcarbonyl)pyrrolidin-3-yl]methyl}-5-[5-(1H-indazol-4-yl)thiophen-2-yl]-4,6-diazaspiro[2.4]hept-4-en-7-one] | 91 | 417 | > 10000 | 832 | 2630 | 851 | 1120
12 | O=C(C1CC1)N1CC[C@@H](CN2C(=O)C3(CC3)N=C2c2ccc(-c3ccc4cccnc4c3)cc2F)C1 [compound 249, (R)-6-((1-(cyclopropanecarbonyl)pyrrolidin-3-yl)methyl)-5-(2-fluoro-4-(quinolin-7-yl)phenyl)-4,6-diazaspiro[2.4]hept-4-en-7-one] | 102 | 17 | > 10000 | ~5.5 | 16.6 | 4.17 | 19.5
13 | O=C(N1CC[C@@H](CN2C(=O)C3(CC3)N=C2c2ccc(-c3ccc(Cl)cc3F)cc2)C1)C1(O)CC1 [compound 202, (R)-5-(4′-chloro-2′-fluoro[1,1′-biphenyl]-4-yl)-6-((1-(1-hydroxycyclopropanecarbonyl)pyrrolidin-3-yl)methyl)-4,6-diazaspiro[2.4]hept-4-en-7-one] | 101 | 83.2 | > 10000 | 58.9 | 550 | ~95.5 | 74.1
14 | Cc1nc2cc(-c3ccc(C4=NC5(CC5)C(=O)N4CC4CN(C(=O)C5CC5)C4)cc3)ccc2s1 [compound 562, 6-{[1-(Cyclopropylcarbonyl)azetidin-3-yl]methyl}-5-[4-(2-methyl-1,3-benzothiazol-5-yl)phenyl]-4,6-diazaspiro[2.4]hept-4-en-7-one] | 97 | 245 | > 10000 | 955 | 3090 | 1620 | 1380
15 | Cn1nccc1-c1ccc(-c2ccc(C3=NC4(CC4)C(=O)N3CC3CN(C(=O)C4(C)CC4)C3)c(F)c2)cc1 [compound 566, 5-[3-Fluoro-4′-(1-methyl-1H-pyrazol-5-yl)biphenyl-4-yl]-6-({1-[(1-methylcyclopropyl)carbonyl]azetidin-3-yl}methyl)-4,6-diazaspiro[2.4]hept-4-en-7-one] | 93 | 380 | > 10000 | 295 | 1550 | 575 | 776
16 | O=C(C1CC1)N1CC(CN2C(=O)C3(CC3)N=C2c2ccc(-c3nc4cc(F)ccc4s3)cc2F)C1 [compound 638, 6-{[1-(Cyclopropylcarbonyl)azetidin-3-yl]methyl}-5-[2-fluoro-4-(5-fluoro-1,3-benzothiazol-2-yl)phenyl]-4,6-diazaspiro[2.4]hept-4-en-7-one] | 100 | 191 | > 10000 | ~195 | 1700 | 479 | 1000
17 | O=C(C1CC1)N1CC[C@@H](CN2C(=O)C3(CC3)N=C2c2ccc(-c3ccc4sccc4c3)cc2F)C1 [compound 241, (R)-5-(4-(benzo[b]thiophen-5-yl)-2-fluorophenyl)-6-((1-(cyclopropanecarbonyl)pyrrolidin-3-yl)methyl)-4,6-diazaspiro[2.4]hept-4-en-7-one] | 100 | 21.9 | > 10000 | ~75.9 | 166 | ~56.2 | 28.8
